From US20110135739A1, “Oral Formulations of a Hedgehog Pathway Inhibitor” (priority 2009, published 2011)

Columns and labels:
[1] = Early dissolution experiments / dissolution attempted in various aqueous media; assay type: physicochemical
Text: Gel formation is problematic from a formulation standpoint because it can result, for example, in irregular release of IPI-926 in vivo. Low rates of dissolution, and subsequent gel formation, persist even when small particle sizes (e.g., less than 150 micrometers) of IPI-926 are employed.
Without wishing to be bound to any particular theory, it was hypothesized that IPI-926 formed the solid agglomerate upon hydration. Accordingly, direct blend formulations were investigated.

[2] = system: human cell lines derived from patients with pancreatic cancer, medulloblastoma, lung cancer, multiple myeloma, acute lymphocytic leukemia, myelodysplatic …; settings: described in WO 2008083252 and WO 2008083248; cited from earlier work
[3] = system: preclinical in vivo models, such as medulloblastoma, small cell lung cancer, non-small cell lung cancer, skin cancer, head and neck cancer, and ovarian cancer; settings: a number of preclinical in vivo models; cited from earlier work
[4] = system: Hedgehog pathway; settings: after single administration; cited from earlier work

In the case of `CC1=C2C[C@H]3[C@@H](CC[C@@H]4C[C@H](NS(C)(=O)=O)CC[C@@]43C)[C@@H]2CC[C@@]2(C1)O[C@@H]1C[C@H](C)CN[C@H]1[C@H]2C.Cl` [IPI-926], the “behaviour when dissolution is attempted” value [1] is listed as “gel, rather than dissolve”, the “in vitro growth of human cell lines” value [2] is listed as “inhibit in vitro growth” and the tumor growth inhibition [3] is listed as “tumor growth inhibition”. For the same molecule, the “Hedgehog pathway inhibition in stromal cells” value [4] was “rapid and sustained Hedgehog pathway inhibition”.
